Measurements as given in patent US9139532B2, “Pyrazolyl guanidine F1F0-atpase inhibitors and therapeutic uses thereof” (Lycera Corporation, priority 2010, dated 2015).
Like-named read-outs stand apart in the source and are kept apart here.

Legend:
Ramos cells = test: Cytotoxicity in Ramos cells; format: cell-based; settings: cytotoxicity in Ramos cells, read-out: Ramos Cell EC50
F1F0-ATPase = target: T1, F1F0-ATPase (Bos taurus, UniProt P13621); test: Inhibition of F1F0-ATPase activity in synthesizing ATP; format: biochemical; settings: inhibition of ATP synthesis by F1F0-ATPase; read-out: ATP Syn IC50
T1 construct: from tissue

| SMILES | IC50 (F1F0-ATPase) [µM] | EC50 (Ramos cells) [µM] | EC50 (Ramos cells; Homo sapiens) [µM] |
| --- | --- | --- | --- |
| CC(C)(C)N/C(=N/C(=O)c1ccc(F)cc1)Nc1cc(-c2ccc(F)cc2)n[nH]1 [Compound A-459] | < 10 | < 10 | – |
| O=C(N=C(NCc1ccc(F)cc1Cl)Nc1cc(-c2ccc(F)cc2)n[nH]1)c1ccc(F)cc1 [Compound A-460] | < 10 | – | < 10 |
| O=C(N=C(Nc1cc(F)cc(Cl)c1)Nc1cc(-c2ccc(F)cc2)n[nH]1)c1ccc(F)cc1 [Compound A-461] | < 10 | – | < 10 |
| COc1ccc(-c2cc(NC(=NC(=O)c3ccc(Cl)c(F)c3)NC3CCOCC3)n[nH]2)cc1 [Compound A-462] | > 10 | – | > 10 |
| O=C(/N=C(\Nc1cc(-c2cccc(Cl)c2)n[nH]1)NC1CCOCC1)c1ccc(Cl)c(F)c1 [Compound A-463] | < 10 | > 10 | – |
| O=C(/N=C(\Nc1cc(-c2ccc(Cl)cc2)n[nH]1)NC1CCOCC1)c1ccc(Cl)c(F)c1 [Compound A-464] | > 10 | > 10 | – |
| O=C(N=C(Nc1cc(-c2ccc(F)cc2)n[nH]1)NC1CCOCC1)c1ccc(C(F)(F)F)cc1 [Compound A-465] | > 10 | – | > 10 |
| O=C(N=C(Nc1cc(-c2ccccc2)[nH]n1)NC1CCOCC1)c1ccc(C(F)(F)F)cc1 [Compound A-466] | > 10 | – | > 10 |
| COc1ccc(-c2cc(N/C(=N\C(=O)c3ccc(Cl)c(F)c3)NC(C)(C)C)[nH]n2)cc1 [Compound A-467] | < 10 | < 10 | – |
| CC(C)(C)NC(=NC(=O)c1ccc(Cl)c(F)c1)Nc1cc(-c2cccc(Cl)c2)[nH]n1 [Compound A-468] | < 10 | – | < 10 |
| CC(C)(C)NC(=NC(=O)c1ccc(Cl)c(F)c1)Nc1cc(-c2ccc(Cl)cc2)n[nH]1 [Compound A-469] | < 10 | – | < 10 |
| Cc1ccc(-c2cc(NC(=NC(=O)c3ccc(Cl)c(F)c3)NC(C)(C)C)[nH]n2)cc1 [Compound A-470] | < 10 | – | > 10 |
| COc1ccc(-c2cc(N/C(=N\C(=O)c3ccc(Cl)c(F)c3)NCc3ccc(F)cc3Cl)[nH]n2)cc1 [Compound A-471] | < 10 | > 10 | – |
| O=C(/N=C(/NCc1ccc(F)cc1Cl)Nc1cc(-c2cccc(Cl)c2)n[nH]1)c1ccc(Cl)c(F)c1 [Compound A-472] | < 10 | > 10 | – |
| O=C(N=C(NCc1ccc(F)cc1Cl)Nc1cc(-c2ccc(Cl)cc2)n[nH]1)c1ccc(Cl)c(F)c1 [Compound A-473] | < 10 | – | > 10 |
| Cc1ccc(-c2cc(NC(=NC(=O)c3ccc(Cl)c(F)c3)NCc3ccc(F)cc3Cl)[nH]n2)cc1 [Compound A-474] | < 10 | – | > 10 |
| O=C(N=C(Nc1cc(F)cc(Cl)c1)Nc1cc(-c2cccc(Cl)c2)[nH]n1)c1ccc(Cl)c(F)c1 [Compound A-475] | < 10 | – | > 10 |
| COc1ccc(-c2cc(N/C(=N\C(=O)c3ccc(F)c(F)c3)NCc3ccc(F)cc3Cl)[nH]n2)cc1 [Compound A-476] | < 10 | > 10 | – |
| O=C(/N=C(/NCc1ccc(F)cc1Cl)Nc1cc(-c2cccc(Cl)c2)n[nH]1)c1ccc(F)c(F)c1 [Compound A-477] | < 10 | > 10 | – |
| O=C(/N=C(/NCc1ccc(F)cc1Cl)Nc1cc(-c2ccc(Cl)cc2)n[nH]1)c1ccc(F)c(F)c1 [Compound A-478] | < 10 | < 10 | – |
| Cc1ccc(-c2cc(N/C(=N\C(=O)c3ccc(F)c(F)c3)NCc3ccc(F)cc3Cl)[nH]n2)cc1 [Compound A-479] | < 10 | < 10 | – |

| SMILES | IC50 (F1F0-ATPase) [µM] | EC50 (Ramos cells) [µM] | EC50 (Ramos cells; Homo sapiens) [µM] |
| --- | --- | --- | --- |
| COc1ccc(-c2cc(N/C(=N\C(=O)c3ccc(F)c(F)c3)Nc3cc(F)cc(Cl)c3)[nH]n2)cc1 [Compound A-480] | < 10 | > 10 | – |
| COc1ccc(-c2cc(N/C(=N\C(=O)c3ccc(C(F)(F)F)cc3)Nc3cc(F)cc(Cl)c3)[nH]n2)cc1 [Compound A-481] | < 10 | > 10 | – |
| O=C(/N=C(/Nc1cc(F)cc(Cl)c1)Nc1cc(-c2ccccc2)n[nH]1)c1ccc(Cl)c(F)c1 [Compound A-482] | < 10 | < 10 | – |
| O=C(/N=C(/NCc1ccc(F)cc1Cl)Nc1cc(-c2ccccc2)n[nH]1)c1ccc(F)c(F)c1 [Compound A-483] | < 10 | > 10 | – |
| COCC(C)NC(=NC(=O)c1ccnc(N2CCCC2)c1)Nc1cc(-c2ccc(F)cc2)[nH]n1 (stereo not drawn) [Compound A-484] | < 10 | – | < 10 |
| CC(=O)Nc1cc(C(=O)N=C(Nc2cc(-c3ccc(F)cc3)[nH]n2)NC(C)(C)C)ccn1 [Compound A-485] | > 10 | – | > 10 |
| CC(C)(C)NC(=NC(=O)c1ccnc(N)c1)Nc1cc(-c2ccc(F)cc2)[nH]n1 [Compound A-486] | < 10 | – | < 10 |
| CC(C)(C)N/C(=N/C(=O)c1ccnc(N2CCCC2)c1)Nc1cc(-c2ccc(F)cc2)n[nH]1 [Compound A-487] | < 10 | < 10 | – |
| COC[C@H](C)N/C(=N/C(=O)c1ccc(F)cc1F)Nc1cc(-c2ccc(F)cc2)n[nH]1 [Compound A-488] | < 10 | < 10 | – |
| CC(C)(C)N/C(=N/C(=O)c1ccc(F)cc1F)Nc1cc(-c2ccc(F)cc2)n[nH]1 [Compound A-489] | < 10 | < 10 | – |
| CC(CC#N)NC(=NC(=O)c1ccc(F)cc1)Nc1cc(-c2ccc(F)cc2)n[nH]1 (stereo not drawn) [Compound A-490] | < 10 | – | < 10 |
| COC[C@H](C)NC(=NC(=O)c1cccc(S(C)(=O)=O)c1)Nc1cc(-c2ccc(F)cc2)n[nH]1 [Compound A-491] | < 10 | – | > 10 |
| COC[C@H](C)N/C(=N/C(=O)c1ccc(O)cc1)Nc1cc(-c2ccc(F)cc2)n[nH]1 [Compound A-492] | < 10 | < 10 | – |
| COC[C@H](C)N/C(=N/C(=O)c1ccc(OC)nc1)Nc1cc(-c2ccc(F)cc2)n[nH]1 [Compound A-493] | < 10 | < 10 | – |
| COc1ccc(C(=O)/N=C(\Nc2cc(-c3ccc(F)cc3)n[nH]2)NC(C)(C)C)cn1 [Compound A-494] | < 10 | < 10 | – |
| COC[C@H](C)N/C(=N/C(=O)c1ccnc(OC)c1)Nc1cc(-c2ccc(F)cc2)n[nH]1 [Compound A-495] | < 10 | < 10 | – |
| COc1cc(C(=O)/N=C(\Nc2cc(-c3ccc(F)cc3)n[nH]2)NC(C)(C)C)ccn1 [Compound A-496] | < 10 | < 10 | – |
| COCC(C)NC(=NC(=O)c1ccc(S(C)(=O)=O)cc1)Nc1cc(-c2ccc(F)cc2)n[nH]1 (stereo not drawn) [Compound A-497] | < 10 | – | < 10 |
| CC(C)(C)N/C(=N/C(=O)c1ccc(S(C)(=O)=O)cc1)Nc1cc(-c2ccc(F)cc2)n[nH]1 [Compound A-498] | < 10 | < 10 | – |
| CC(C)(C)N/C(=N/C(=O)c1cccc(S(C)(=O)=O)c1)Nc1cc(-c2ccc(F)cc2)n[nH]1 [Compound A-499] | < 10 | < 10 | – |
| COC[C@@H](C)NC(=NC(=O)c1ccc(F)cc1)Nc1cc(-c2ccc(F)cc2)n[nH]1 [Compound A-500] | < 10 | – | < 10 |

More lines, main results first:

| IC50 (F1F0-ATPase) [µM] | SMILES | EC50 (Ramos cells) [µM] | EC50 (Ramos cells; Homo sapiens) [µM] |
| --- | --- | --- | --- |
| < 10 | O=C(/N=C(\Nc1cc(-c2ccc(F)cc2)n[nH]1)NC1CCC(F)(F)CC1)c1ccc(F)cc1 [Compound A-501] | < 10 | – |
| < 10 | N#Cc1cccc(C(=O)/N=C(\Nc2cc(-c3ccc(F)cc3)n[nH]2)NC2CCC(F)(F)CC2)c1 [Compound A-502] | < 10 | – |
| < 10 | COCC(C)(C)NC(=NC(=O)c1ccc(F)cc1)Nc1cc(-c2ccc(F)cc2)n[nH]1 [Compound A-505] | – | < 10 |
| < 10 | COCCOCC(C)(C)N/C(=N/C(=O)c1cccc(C#N)c1)Nc1cc(-c2ccc(F)cc2)n[nH]1 [Compound A-506] | < 10 | – |
| < 10 | CC(C)(C)N/C(=N/C(=O)c1ccc(O)cc1)Nc1cc(-c2ccc(F)cc2)n[nH]1 [Compound A-509] | < 10 | – |
| < 10 | N#Cc1cccc(C(=O)/N=C(\Nc2cc(-c3ccc(F)cc3)[nH]n2)N[C@@H]2CCOC2)c1 [Compound A-510] | < 10 | – |
| < 10 | O=C(N=C(Nc1cc(-c2ccc(F)cc2)[nH]n1)NC1CCOC1)c1ccc(F)cc1 (stereo not drawn) [Compound A-511] | < 10 | – |
| < 10 | CC(C)NC(=NC(=O)c1ccc(F)cc1)Nc1cc(-c2ccc(F)cc2)[nH]n1 [Compound A-512] | – | < 10 |
| < 10 | CC(C)CN/C(=N/C(=O)c1ccc(F)cc1)Nc1cc(-c2ccc(F)cc2)[nH]n1 [Compound A-513] | < 10 | – |
| < 10 | CC(C)(C)CN/C(=N/C(=O)c1ccc(F)cc1)Nc1cc(-c2ccc(F)cc2)[nH]n1 [Compound A-514] | < 10 | – |
| < 10 | COc1ccc(C(=O)/N=C(/NCC(C)(C)C)Nc2cc(-c3ccc(F)cc3)[nH]n2)cc1 [Compound A-515] | < 10 | – |
| < 10 | COc1cccc(C(=O)N=C(NCC(C)(C)C)Nc2cc(-c3ccc(F)cc3)n[nH]2)c1 [Compound A-516] | – | < 10 |
| < 10 | CC(C)(C)CN/C(=N/C(=O)c1cccc(C#N)c1)Nc1cc(-c2ccc(F)cc2)[nH]n1 [Compound A-517] | < 10 | – |
| < 10 | COc1ccc(C(=O)N=C(Nc2cc(-c3ccc(F)cc3)n[nH]2)NC2CCCC2)cc1 [Compound A-518] | – | < 10 |
| < 10 | COc1cccc(C(=O)N=C(Nc2cc(-c3ccc(F)cc3)n[nH]2)NC2CCCC2)c1 [Compound A-519] | – | < 10 |
| < 10 | N#Cc1cccc(C(=O)/N=C(\Nc2cc(-c3ccc(F)cc3)[nH]n2)NC2CCCC2)c1 [Compound A-520] | < 10 | – |
| < 10 | O=C(N=C(Nc1cc(-c2ccc(F)cc2)n[nH]1)NC1CCCC1)c1ccc(F)cc1 [Compound A-521] | – | < 10 |
| < 10 | CC(C)(C)CNC(=NC(=O)c1ccc(F)c(F)c1)Nc1cc(-c2ccc(F)cc2)n[nH]1 [Compound A-522] | – | < 10 |
